The NIST ThermoML archive (doi:10.1016/j.fluid.2015.01.010)
Numbers after ± are expanded uncertainties.

Assay: activity coefficient (dimensionless); of the first substance listed, at infinite dilution; xn = mol fraction of the nth substance listed
Conditions: 101 kPa, Liquid, Chromatography, x1 = 0

SMILES | activity coefficient (298.15 K) | activity coefficient (301.15 K) | activity coefficient (303.15 K) | activity coefficient (305.15 K) | activity coefficient (308.15 K) | activity coefficient (310.15 K) | activity coefficient (313.15 K) | activity coefficient (315.15 K) | activity coefficient (318.15 K) | activity coefficient (320.15 K) | activity coefficient (323.15 K) | activity coefficient (325.15 K) | activity coefficient (328.15 K) | activity coefficient (330.15 K) | activity coefficient (333.15 K) | activity coefficient (338.15 K) | activity coefficient (299.15 K) | activity coefficient (306.15 K) | activity coefficient (311.15 K)
C=CC=O [2-propenal] + O | 20.9 ± 0.8 | 21.5 ± 0.8 | 21.4 ± 0.8 | 21.7 ± 0.8 | 22.4 ± 0.8 | 22.6 ± 0.8 | 23.1 ± 0.9 | 23.5 ± 0.9 | 24 ± 0.9 | 24.1 ± 0.9 | 24.1 ± 0.9 | 24.3 ± 0.9 | 24.3 ± 0.9 | 24.5 ± 0.9 | 24.4 ± 1 | – | – | – | –
C/C=C/C=O [(E)-2-butenal] + O | 39 ± 1.6 | – | – | – | 42.8 ± 1.6 | – | 44.4 ± 1.8 | – | 46.2 ± 1.9 | – | 47 ± 2.1 | – | 47.3 ± 2 | – | 48 ± 1.9 | – | – | – | –
CCCCO [butan-1-ol] + O | – | – | 52 ± 3 | – | 57 ± 2 | – | 58 ± 3 | – | 64 ± 3 | – | 69 ± 3 | – | 72 ± 3 | – | 80 ± 3 | 78 ± 3 | – | – | –
c1ccoc1 [furan] + O | 415 ± 20 | 403 ± 19 | 397 ± 19 | 394 ± 19 | 372 ± 19 | – | 356 ± 20 | – | – | – | – | – | – | – | – | – | 412 ± 20 | 380 ± 19 | 366 ± 22
CCCCC=O [pentanal] + O | 220 ± 8 | – | 260 ± 10 | – | 276 ± 10 | – | 302 ± 12 | – | 324 ± 12 | – | 339 ± 14 | – | 350 ± 14 | – | – | – | – | – | –
